# Like-named read-outs stand apart in the source and are kept apart here. Numbered stars: 1 amine (or outer) side, 2 acyl side, 3 side chain; on linkers, the order of the positions; unused ones are H or OH. Bridge positions count the residues as written; N and C are the ends. Square brackets hold non-standard residues; d marks the D form. Peptide text beside a SMILES is read from it. I, II: the chains in the order shown. γGlu = O=C(O)[C@H](CCC(=O)[*:2])N[*:1]
# Tests used:
# [1] = pKa of thiol groups, spectrophotometric titration; assay type: physicochemical; settings: 50 μM peptide in phosphate buffered saline, titrated with 1 M NaOH, absorbance at 240 nm
# Description: The ratio of thiol and thiolate concentrations were measured spectrophotometrically at 240 nm on a PerkinElmer Lambda 25 spectrometer similarly as previously for GSH and α-GSH [21]. 1 mL of 50 μM peptide solution in phosphate buffered saline (Calbiochem, USA) was titrated with 5 μL volumes of 1 M NaOH and pH and absorbance changes were determined after each addition. The results were corrected to consider the dilution of the assay mixture during titration.
# [2] = previous work; cited from earlier work
# Text: UPF1 and UPF17 have also shown different effects in free radical scavenging experiments. According to the classification of kinetic behavior by Sánches-Moreno et al., UPF17 is classified as fast and UPF1 as intermediate DPPH radical scavenger. […] This raised a question about pKa values for the thiol groups of UPF peptides. Previously, the change of γ-peptide bond to α-peptide bond has also been investigated f ...
# K562 cells = tested on: K562 cells; design: method as in PMID 17577738, PMID 15489015; settings: cited from earlier work
# [3] = tested on: equine kidney γ-glutamyltranspeptidase; experiment: Stability towards γ-glutamyltranspeptidase (HPLC-MS); settings: 1 mM peptide, 0.3 mg/mL equine kidney GGT, 0.1 M Tris-HCl pH 7.4, 0.1% EDTA, 6 mM Gly-Gly acceptor, 37°C, 1 h; HPLC-MS read-out
# Description: 6 mM Gly-Gly was added as an acceptor for γ-Glu moiety [20]. GSH was incubated with GGT under the same conditions as the control. The samples were heat-inactivated, centrifuged at 10000 g and +4°C for 5 min, and kept on ice until analyzed. Supernatants were analyzed on a Prominence HPLC (Shimadzu, Japan) and Q-Trap 3200 (Applied Biosystems, USA) mass spectrometry tandem. Luna C18 100 × 2 mm, 3 μm column from Phenomenex was used for sample separation. Solvent A was a mixture of 99.9% water and 0.1% HCOOH, and solvent B was a mixture of 99.9% acetonitrile and 0.1% HCOOH (mass spectrometry grade, Riedel-de Haėn, Germany). Samples were eluated at a flow rate of 0.1 mL/min, gradient started with 5 min at isocratic flow of solvent A, concentration of solvent B increased up to 30% in 25 min, followed by wash with 100% solvent B in 20 min. Enhanced MS scans were performed in negative mode with rate 1000 amu/s between mass range 50–1700 Da. Ionspray voltage was set to −4500 V, declustering potential to −30 V and entrance potential to −10 V.
# [4] = tested on: primary culture of cerebellar granule cells; design: method as in PMID 17577738, PMID 15489015; settings: cited from earlier work
Structure (SMILES),pKa of thiol group [1],degradation by GGT [3],pKa of thiol group [2],concentration up to which nontoxic for K562 cells (K562 cells) [µM],concentration up to which no toxic effect on cerebellar granule cells [4]
N[C@@H](CCC(=O)O)C(=O)N[C@@H](CS)C(=O)NCC(=O)O [α-GSH] (H-Glu-Cys-Gly-OH),9.1 ± 0.1,–,9.1 ± 0.1,–,–
"N[C@@H](CCC(=O)N[C@@H](CS)C(=O)NCC(=O)O)C(=O)O [GSH, γ-L-Glu-L-Cys-Gly, reference compound]",9.0 ± 0.3,–,9.0 ± 0.1,–,–

# Continued, in another order:
pKa of thiol group [1],degradation by GGT [3],Structure (SMILES),pKa of thiol group [2],concentration up to which nontoxic for K562 cells (K562 cells) [µM],concentration up to which no toxic effect on cerebellar granule cells [4]
9.3 ± 0.1,not degraded,"COc1ccc(C[C@H](N)C(=O)N[C@@H](CCC(=O)N[C@@H](CS)C(=O)NCC(=O)O)C(=O)O)cc1 [UPF1, Tyr(Me)-γ-Glu-Cys-Gly] (H-Y(Me)[γGlu]CG-OH)",–,≤ 200,up to 100 μM
9.4 ± 0.2,–,"COc1ccc(C[C@H](N)C(=O)N[C@@H](CCC(=O)O)C(=O)N[C@@H](CS)C(=O)NCC(=O)O)cc1 [UPF17, Tyr(Me)-Glu-Cys-Gly] (H-Y(Me)ECG-OH)",–,≤ 200,–
–,not detected,COc1ccc(C[C@H](N)C(=O)N[C@@H](CCC(=O)N[C@@H](CSSC[C@H](NC(=O)CC[C@H](NC(=O)[C@@H](N)Cc2ccc(OC)cc2)C(=O)O)C(=O)NCC(=O)O)C(=O)NCC(=O)O)C(=O)O)cc1 [dimerised UPF1] (I: H-Y(Me)[γGlu]CG-OH / II: H-Y(Me)[γGlu]CG-OH; disulfide I:3-II:3),–,–,–
